According to patent US20190008152A1, “PLANT DISEASE CONTROL COMPOSITION AND PLANT DISEASE CONTROL METHOD” (SUMITOMO CHEMICAL COMPANY, LIMITED, priority 2015, published 2019):

Experiments:
[1] = test system: wheat rust fungus (Puccinia recondita); assay: Test Example 4: foliar spray of flowable formulations on wheat, inoculation with wheat rust fungus, lesion area; type: in vivo, Puccinia recondita on wheat (cultivar. Shirogane); conditions: single use
Experimental: Five (5) parts of the present compound 1-3, 35 parts of a mixture of white carbon and ammonium polyoxyethylene alkyl ether sulfate (the weight ratio of 1:1) and 55 parts of water were mixed, and the mixture was then finely-ground by a wet grinding method to obtain a flowable formulation comprising the present compound 1-3. Separately, the flowable formulation comprising the present compound 2-1 was prepared according to the above-mentioned similar method except that the present compound 2-1 was used instead of the present compound 1-3 to form a flowable formulation comprising the present compound 2-1.
Each of the above-mentioned respective flowable formulations, and the flowable formulation comprising the present compound 1-3 and the present compound 2-1 that was prepared according to the above-mentioned Formulation Example 3 was diluted with water such that each concentration of the respective compounds in the dilution solutions was adjusted to that indicated in Table 6, to prepare the dilution solutions, respectively.
A plastic pot was filled with soil, and thereto wheat (cultivar. Shirogane) was seeded, and the plants were grown in a greenhouse for ten days. […]
From each of the lesion area of the treated group and the untreated group, respectively, the efficacy of the treated group was calculated by the below-mentioned Equation 2. […]

wheat leaf blight fungus = assay: Test Example 3: growth of wheat leaf blight fungus in YBG medium, microtiter plate, absorbance at 550 nm; type: cell-based, Mycosphaerella graminicola; conditions: single use, 18° C., six days
Experimental: The present compound 1-3 or the present compound 2-1 was dissolved into dimethyl sulfoxide such that each concentration of the present compound 1-3 or the present compound 2-1 was adjusted to one hundred fifty times as much as the concentration indicated in the below-mentioned Table 5. The resultant agent solution was dispensed into a microtiter plate (with 96 wells) in 1 μl portion thereof per well. One hundred forty nine (149) μl of YBG medium (which was prepared by dissolving 10 g of yeast extract, 10 g of Bacto Peptone, and 20 mL of glycerol into 1 L of water, followed by sterilizing the medium) was dispensed into the wells to which the agent solution(s) was/were dispensed. The plate was cultivated at 18° C. for six days, thereby allowing wheat leaf blight fungus to undergo proliferation, and the absorbance at 550 nm of each well of the micro titer plate was then measured to examine a degree of growth of the wheat leaf blight fungus (hereinafter referred to as “treated group”).
Whereas, wheat leaf blight fungus was proliferated similarly to the case of the treated group except that dimethyl sulfoxide was used instead of the agent solution, and the degree of the growth was examined (hereinafter referred to as “untreated group”). The efficacy was calculated from the respective obtained degree of growth by the below-mentioned “Equation 1”.
Efficacy (%)=100×(X−Y)/X Equation 1 […]

Cc1cccc(-n2nnn(C)c2=O)c1COc1ccn(-c2ccc(Cl)cc2)n1 [Present compound 1-3, 1-(2-{[1-(4-chlorophenyl)-1H-pyrazol-3-yl]oxymethyl}-3-methylphenyl)-4-methyl-1,4-dihydrotetrazol-5-one]
Efficacy (%) ([1]; concentration 0.002 ppm): 35%
Efficacy (%) ([1]; concentration 0.01 ppm): 70%
Efficacy (%) (wheat leaf blight fungus; concentration in medium 0.0001 ppm): 20%
Efficacy (%) (wheat leaf blight fungus; concentration in medium 0.01 ppm): 37%
